One test has as its target T1, Alpha1D (Homo sapiens, UniProt P25100).
T1 construct: purchased NIMH Psychoactive Drug Screening Program (PDSP)
Put plainly: NIMH PDSP radioligand binding, Alpha1D. The conditions noted are these: radioligand [3H]prazosine, n=4.

Another test has as its target T2, Beta3 (Homo sapiens, UniProt P13945).
T2 construct: purchased NIMH Psychoactive Drug Screening Program (PDSP)
Nature of the test: NIMH PDSP radioligand binding, Beta3. The settings on record: radioligand [3H]CGP12177, n=4.

The next test deals with Sigma2. Put plainly: NIMH PDSP radioligand binding, Sigma2. The settings on record: 10 μM; radioligand [3H]DTG; n=4. As for the experimental part: IC50 values in μM (Ki μM)^a. The targets in bold were inhibited by >35% at 10 μM.
The target in another test is T3, 5-HT1A (Homo sapiens, UniProt P08908).
T3 construct: purchased NIMH Psychoactive Drug Screening Program (PDSP)
T3 sequence (P08908 whole entry): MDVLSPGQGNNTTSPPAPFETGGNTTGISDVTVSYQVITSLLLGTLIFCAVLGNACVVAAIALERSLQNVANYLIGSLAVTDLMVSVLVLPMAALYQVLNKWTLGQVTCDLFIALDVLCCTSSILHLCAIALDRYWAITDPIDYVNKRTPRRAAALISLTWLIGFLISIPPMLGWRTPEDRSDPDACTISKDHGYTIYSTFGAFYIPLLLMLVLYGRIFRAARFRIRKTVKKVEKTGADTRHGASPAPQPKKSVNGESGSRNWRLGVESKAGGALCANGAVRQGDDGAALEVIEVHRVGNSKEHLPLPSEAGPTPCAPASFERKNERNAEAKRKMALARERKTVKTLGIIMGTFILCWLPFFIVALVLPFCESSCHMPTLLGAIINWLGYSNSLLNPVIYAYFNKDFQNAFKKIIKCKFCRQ
Nature of the test: NIMH PDSP radioligand binding, 5-HT1A. The settings on record: radioligand [3H]8-OH-PDAT, n=4.

The target in another test is T4, 5-HT1D (Homo sapiens, UniProt P28221).
T4 construct: purchased NIMH Psychoactive Drug Screening Program (PDSP)
T4 sequence (P28221 whole entry): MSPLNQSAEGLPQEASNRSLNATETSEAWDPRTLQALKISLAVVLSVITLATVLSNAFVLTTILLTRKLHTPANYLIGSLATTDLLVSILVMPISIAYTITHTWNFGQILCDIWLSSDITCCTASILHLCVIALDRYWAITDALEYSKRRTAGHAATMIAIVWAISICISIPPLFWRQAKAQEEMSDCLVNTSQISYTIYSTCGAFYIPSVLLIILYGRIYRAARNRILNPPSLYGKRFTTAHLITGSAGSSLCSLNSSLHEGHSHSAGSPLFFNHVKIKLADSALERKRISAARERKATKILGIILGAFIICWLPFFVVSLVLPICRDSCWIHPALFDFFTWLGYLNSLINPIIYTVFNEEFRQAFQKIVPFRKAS
Nature of the test: NIMH PDSP radioligand binding, 5-HT1D. The conditions noted are these: radioligand [3H]GR125743, n=4.

A further test deals with T5, MOR (Homo sapiens, UniProt P35372).
T5 construct: purchased NIMH Psychoactive Drug Screening Program (PDSP)
T5 sequence (P35372 whole entry): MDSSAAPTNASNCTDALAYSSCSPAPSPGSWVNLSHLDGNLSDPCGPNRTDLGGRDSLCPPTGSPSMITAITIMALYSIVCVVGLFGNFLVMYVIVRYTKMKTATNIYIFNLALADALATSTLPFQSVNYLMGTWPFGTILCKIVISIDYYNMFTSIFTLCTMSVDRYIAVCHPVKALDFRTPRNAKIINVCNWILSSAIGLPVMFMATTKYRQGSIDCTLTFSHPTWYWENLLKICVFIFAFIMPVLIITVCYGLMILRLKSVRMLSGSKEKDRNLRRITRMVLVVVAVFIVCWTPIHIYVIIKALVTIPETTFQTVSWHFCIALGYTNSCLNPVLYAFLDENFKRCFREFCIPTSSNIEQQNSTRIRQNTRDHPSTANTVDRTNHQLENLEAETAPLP
Put plainly: NIMH PDSP radioligand binding, MOR. The settings on record: radioligand [3H]DAMGO, n=4.

The target in another test is T6, hGAT1 (Homo sapiens, UniProt P30531).
T6 construct: expressed in transfected cells
T6 sequence (P30531 whole entry): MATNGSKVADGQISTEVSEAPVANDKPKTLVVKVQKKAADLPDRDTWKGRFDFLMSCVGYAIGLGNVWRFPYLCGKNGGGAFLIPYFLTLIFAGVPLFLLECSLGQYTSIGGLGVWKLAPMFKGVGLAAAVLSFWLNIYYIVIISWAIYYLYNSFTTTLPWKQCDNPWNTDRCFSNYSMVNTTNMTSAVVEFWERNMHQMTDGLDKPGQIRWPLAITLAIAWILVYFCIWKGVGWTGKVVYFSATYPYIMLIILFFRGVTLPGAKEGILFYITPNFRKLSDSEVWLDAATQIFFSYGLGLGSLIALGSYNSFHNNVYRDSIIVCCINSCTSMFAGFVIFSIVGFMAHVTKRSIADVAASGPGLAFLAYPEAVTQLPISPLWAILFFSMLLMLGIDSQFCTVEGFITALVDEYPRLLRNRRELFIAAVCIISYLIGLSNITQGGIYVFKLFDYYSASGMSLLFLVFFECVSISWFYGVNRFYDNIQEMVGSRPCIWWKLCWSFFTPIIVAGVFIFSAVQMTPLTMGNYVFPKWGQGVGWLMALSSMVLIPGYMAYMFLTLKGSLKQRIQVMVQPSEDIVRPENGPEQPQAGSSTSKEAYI
Put plainly: [3H]GABA uptake at hGAT1 stably expressed in CHO cells. It is filed as cell-based. The conditions noted are these: for IC50: CHO. Here is the method: (§1) The HEK-293 and Flp-In CHO cell lines stably expressing mouse (m) and human (h) GATs, respectively, have been described previously and were cultured accordingly. The tsA201 cell line was used for transient expression while the MDCK II cell line express BGT1 endogenously. Both cell lines were cultured as described. tsA201 cells were transfected with DNA constructs (8 μg per 10 cm dish if not otherwise mentioned) using 40 μL PolyFect transfection reagent according to the manufacturer’s protocol (Qiagen, Venlo, Netherlands). The DNA constructs encoding hBGT1, hGAT1-3 [36], the mutated constructs hBGT1 Q299 and hGAT3 L314Q described previously, and hBGT Y453A were synthesized and sequence validated by Genscript (NJ, USA).
(§2) The [^3H]GABA competition uptake assay was performed as previously described. A minor change, however, was introduced for uptake in MDCK II cells, in which 100 nM [^3H]GABA was used for a 15 min incubation period at 37 °C instead of 30 nM [^3H]GABA and 3 min incubation. Studies related to the inhibition curves with GABA and BPDBA at hBGT1 were obtained both with and without the presence of 10 μM ATP during the [^3H]GABA uptake assay.
The [^3H]GABA uptake data was normalized to the percentage of total uptake in the individual experiments in the presence of the lowest compound concentration or no compound present. Data presented is the pooled data of at least three independent experiments with three technical replicates. Concentration–response curves (CRCs) were fitted with GraphPad Prism (version 8.2.1, Yosemite, GraphPad Software, San Diego, CA, USA) by non-linear regression to the sigmoidal concentration response model: Y=Bottom+(Top-Bottom)/1+10^LogIC50-X∗nH where Top is the Top plateau, Bottom is the Bottom plateau, X is the logarithm of the concentration of the compound, LogIC50 is the concentration giving a response halfway between Top and Bottom,and nH is the Hill slope.
The best fit for CRCs obtained with the [^3H]GABA uptake assay was identified by the extra-sum-of-squares F test (for convenience referred to as F test).

For a further test, the target named is T7, KOR (Homo sapiens, UniProt P41145).
T7 construct: purchased NIMH Psychoactive Drug Screening Program (PDSP)
Nature of the test: NIMH PDSP radioligand binding, KOR. The settings on record: radioligand [3H]U69593, n=4.

Another test has as its target T8, Alpha1A (Homo sapiens, UniProt P35348).
T8 construct: purchased NIMH Psychoactive Drug Screening Program (PDSP)
Put plainly: NIMH PDSP radioligand binding, Alpha1A. The settings on record: radioligand [3H]prazosine, n=4.

For the next test, the target named is T9, 5-HT2A (Homo sapiens, UniProt P28223).
T9 construct: purchased NIMH Psychoactive Drug Screening Program (PDSP)
Nature of the test: NIMH PDSP radioligand binding, 5-HT2A. The settings on record: radioligand [3H]ketanserin, n=4.

The target of the next test is T10, Alpha1B (Homo sapiens, UniProt P35368).
T10 construct: purchased NIMH Psychoactive Drug Screening Program (PDSP)
T10 sequence (P35368 whole entry): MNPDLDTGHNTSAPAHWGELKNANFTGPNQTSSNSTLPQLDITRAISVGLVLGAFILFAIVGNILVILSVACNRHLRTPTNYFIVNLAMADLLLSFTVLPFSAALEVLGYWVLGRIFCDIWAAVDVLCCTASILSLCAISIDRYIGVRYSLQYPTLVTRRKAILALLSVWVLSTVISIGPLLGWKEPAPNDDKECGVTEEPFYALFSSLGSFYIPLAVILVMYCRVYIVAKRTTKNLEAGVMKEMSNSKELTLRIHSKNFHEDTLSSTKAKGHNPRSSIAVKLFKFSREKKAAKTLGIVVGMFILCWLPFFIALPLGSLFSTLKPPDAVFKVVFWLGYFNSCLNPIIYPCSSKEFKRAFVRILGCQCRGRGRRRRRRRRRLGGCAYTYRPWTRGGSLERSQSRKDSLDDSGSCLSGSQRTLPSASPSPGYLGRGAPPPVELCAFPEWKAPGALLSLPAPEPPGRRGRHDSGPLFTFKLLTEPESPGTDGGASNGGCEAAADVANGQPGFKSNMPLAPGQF
Nature of the test: NIMH PDSP radioligand binding, Alpha1B. The settings on record: radioligand [3H]prazosine, n=4.

The target of another test is T11, H1 (Homo sapiens, UniProt P35367).
T11 construct: purchased NIMH Psychoactive Drug Screening Program (PDSP)
Put plainly: NIMH PDSP radioligand binding, H1. The conditions noted are these: radioligand [3H]pyrilamine, n=4.

A further test has as its target T12, hGAT3 (Homo sapiens, UniProt P48066).
T12 construct: expressed in transfected cells
T12 sequence (P48066 1-632): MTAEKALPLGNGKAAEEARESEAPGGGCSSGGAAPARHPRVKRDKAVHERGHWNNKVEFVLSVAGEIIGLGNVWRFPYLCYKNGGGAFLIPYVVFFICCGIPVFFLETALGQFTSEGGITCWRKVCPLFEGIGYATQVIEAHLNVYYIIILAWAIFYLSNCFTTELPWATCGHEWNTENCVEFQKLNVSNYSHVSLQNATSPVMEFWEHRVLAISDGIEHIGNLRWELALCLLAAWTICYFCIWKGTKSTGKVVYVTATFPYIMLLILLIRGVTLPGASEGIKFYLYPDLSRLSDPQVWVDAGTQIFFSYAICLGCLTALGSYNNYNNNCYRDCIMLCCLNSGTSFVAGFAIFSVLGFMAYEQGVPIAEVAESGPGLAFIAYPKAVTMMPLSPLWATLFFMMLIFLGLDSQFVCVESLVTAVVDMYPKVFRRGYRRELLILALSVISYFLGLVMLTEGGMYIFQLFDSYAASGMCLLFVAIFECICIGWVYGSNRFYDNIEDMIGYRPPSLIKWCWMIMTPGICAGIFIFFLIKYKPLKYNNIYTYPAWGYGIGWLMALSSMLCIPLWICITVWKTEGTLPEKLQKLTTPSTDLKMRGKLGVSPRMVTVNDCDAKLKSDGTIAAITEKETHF
Nature of the test: [3H]GABA uptake at hGAT3 transiently expressed in tsA201 cells. In kind it is cell-based. The conditions noted are these: 30 nM [3H]GABA, 3 min, F test P < 0.05. As for the experimental part: as §1, §2
(§3) The [^3H]GABA uptake data was normalized to the percentage of total uptake in the individual experiments in the presence of the lowest compound concentration or no compound present. […]

Another test deals with T13, hGAT3 L314Q (Homo sapiens, UniProt P48066, L314Q).
T13 construct: expressed in transfected cells; host or cells: tsA201 (transient)
Put plainly: [3H]GABA uptake at hGAT3 L314Q mutant transiently expressed in tsA201 cells. It is filed as cell-based. The conditions noted are these: 30 nM [3H]GABA, 3 min. Here is the method:
as §1, §2, §3

A further test deals with T14, SERT (Homo sapiens, UniProt P31645).
T14 construct: purchased NIMH Psychoactive Drug Screening Program (PDSP)
T14 sequence (P31645 whole entry): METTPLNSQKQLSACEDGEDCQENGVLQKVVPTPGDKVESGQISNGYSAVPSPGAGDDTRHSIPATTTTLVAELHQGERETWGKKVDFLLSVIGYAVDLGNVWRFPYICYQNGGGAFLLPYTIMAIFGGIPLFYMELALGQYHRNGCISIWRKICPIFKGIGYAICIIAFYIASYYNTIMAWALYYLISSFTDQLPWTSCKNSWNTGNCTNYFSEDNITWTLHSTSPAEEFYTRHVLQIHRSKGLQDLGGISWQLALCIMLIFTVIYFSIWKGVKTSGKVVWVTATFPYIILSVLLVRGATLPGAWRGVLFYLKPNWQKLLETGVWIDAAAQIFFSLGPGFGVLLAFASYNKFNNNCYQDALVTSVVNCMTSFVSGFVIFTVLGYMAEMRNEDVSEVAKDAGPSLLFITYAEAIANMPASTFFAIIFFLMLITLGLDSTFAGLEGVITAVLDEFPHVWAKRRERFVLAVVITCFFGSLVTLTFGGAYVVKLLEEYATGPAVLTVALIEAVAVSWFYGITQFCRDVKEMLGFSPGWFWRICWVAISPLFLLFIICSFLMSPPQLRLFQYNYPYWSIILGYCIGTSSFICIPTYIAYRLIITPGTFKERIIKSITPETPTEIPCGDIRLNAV
Put plainly: NIMH PDSP radioligand binding, SERT. The settings on record: radioligand [3H]citalopram, n=4.

The next test deals with T15, 5-HT2C (Homo sapiens, UniProt P28335).
T15 construct: NIMH PDSP (screening service)
T15 sequence (P28335 33-458, species assumed): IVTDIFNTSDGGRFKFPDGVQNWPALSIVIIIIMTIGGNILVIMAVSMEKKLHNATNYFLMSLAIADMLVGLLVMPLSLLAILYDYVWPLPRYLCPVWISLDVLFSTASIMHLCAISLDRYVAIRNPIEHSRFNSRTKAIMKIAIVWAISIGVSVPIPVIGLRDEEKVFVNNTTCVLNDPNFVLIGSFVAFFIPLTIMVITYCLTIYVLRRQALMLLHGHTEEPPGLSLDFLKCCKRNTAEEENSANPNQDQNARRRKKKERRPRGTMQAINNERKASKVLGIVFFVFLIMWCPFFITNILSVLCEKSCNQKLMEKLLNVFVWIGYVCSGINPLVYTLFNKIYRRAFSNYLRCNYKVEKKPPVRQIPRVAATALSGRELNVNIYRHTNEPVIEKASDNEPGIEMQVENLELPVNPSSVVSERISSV
Put plainly: NIMH PDSP radioligand binding, 5-HT2C. The conditions noted are these: radioligand [3H]mesulergine.

The target in another test is T16, Alpha2B (Homo sapiens, UniProt P18089).
T16 construct: purchased NIMH Psychoactive Drug Screening Program (PDSP)
T16 sequence (P18089 whole entry): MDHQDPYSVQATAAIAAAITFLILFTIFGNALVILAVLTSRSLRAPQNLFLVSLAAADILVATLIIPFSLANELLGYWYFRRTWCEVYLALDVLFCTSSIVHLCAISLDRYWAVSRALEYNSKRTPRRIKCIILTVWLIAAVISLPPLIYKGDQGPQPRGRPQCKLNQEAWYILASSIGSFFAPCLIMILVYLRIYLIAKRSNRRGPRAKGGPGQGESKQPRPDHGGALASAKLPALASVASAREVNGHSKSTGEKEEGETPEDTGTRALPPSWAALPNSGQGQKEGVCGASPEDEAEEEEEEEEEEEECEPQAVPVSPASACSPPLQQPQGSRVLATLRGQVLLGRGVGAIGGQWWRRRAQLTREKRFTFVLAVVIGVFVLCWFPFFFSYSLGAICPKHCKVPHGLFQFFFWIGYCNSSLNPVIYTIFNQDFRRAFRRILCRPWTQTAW
Nature of the test: NIMH PDSP radioligand binding, Alpha2B. The conditions noted are these: radioligand [3H]rauwolscine, n=4.

The next test concerns the target T17, 5-HT2B (Homo sapiens, UniProt P41595).
T17 construct: NIMH PDSP (screening service)
Put plainly: NIMH PDSP radioligand binding, 5-HT2B. The conditions noted are these: radioligand [3H]LSD.

“Also recorded” adds a separate entry of the source.

T17 sequence (P41595 whole entry, species assumed): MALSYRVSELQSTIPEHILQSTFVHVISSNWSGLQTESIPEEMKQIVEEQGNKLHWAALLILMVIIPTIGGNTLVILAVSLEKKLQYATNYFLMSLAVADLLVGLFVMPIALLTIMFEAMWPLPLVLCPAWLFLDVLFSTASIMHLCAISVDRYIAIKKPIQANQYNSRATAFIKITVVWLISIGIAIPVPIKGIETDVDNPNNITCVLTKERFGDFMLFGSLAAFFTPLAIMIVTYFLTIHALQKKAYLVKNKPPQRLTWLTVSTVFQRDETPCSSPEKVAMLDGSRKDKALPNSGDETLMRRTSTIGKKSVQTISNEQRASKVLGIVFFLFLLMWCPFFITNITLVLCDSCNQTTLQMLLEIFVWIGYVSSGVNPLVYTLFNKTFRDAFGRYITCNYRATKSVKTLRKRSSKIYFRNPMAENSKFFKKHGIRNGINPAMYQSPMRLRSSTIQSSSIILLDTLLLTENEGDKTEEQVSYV
T2 sequence (P13945 whole entry): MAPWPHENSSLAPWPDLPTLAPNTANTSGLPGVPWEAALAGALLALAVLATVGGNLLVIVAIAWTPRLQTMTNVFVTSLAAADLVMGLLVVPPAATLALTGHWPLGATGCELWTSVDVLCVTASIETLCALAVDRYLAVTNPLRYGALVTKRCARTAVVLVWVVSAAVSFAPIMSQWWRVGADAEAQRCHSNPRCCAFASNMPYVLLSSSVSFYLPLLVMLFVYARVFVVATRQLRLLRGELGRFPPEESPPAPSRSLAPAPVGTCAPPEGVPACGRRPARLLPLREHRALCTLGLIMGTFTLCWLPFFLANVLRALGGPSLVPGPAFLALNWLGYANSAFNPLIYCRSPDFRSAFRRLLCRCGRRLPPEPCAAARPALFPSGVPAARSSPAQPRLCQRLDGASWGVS

`Cc1ccsc1C(=CCCN(C)[C@H]1CCCC[C@H]1C(=O)O)c1sccc1C` [SBV2-114, (1R,2S)-2-((4,4-bis(3-methylthiophen-2-yl)but-3-en-yl)(methyl)amino)cyclohexanecarboxylic acid]: the inhibition at 10 µM on Alpha1D is -4.7%; at Beta3, 8.3%; at 5-HT1A, -7.9%; at 5-HT1D it was 19.6%; on MOR it was 42%; at KOR it was 40.8%. Besides, the inhibition at 10 µM on Alpha1A was 0.1%; at 5-HT2A, 20%; at Alpha1B, 1.9%; on H1, 51.2%; on SERT, 18.8%; on 5-HT2C (10 μM, n=4), 77.5%. The inhibition at 10 µM is 24.9% on Alpha2B and 96.8% on 5-HT2B (10 μM, n=4). In the test on Sigma2, the “% inhibition” value turned out to be 48.3%. The concentration for half-maximal inhibition (IC50) against hGAT1 (ambiguous fit, N=2) was determined as 566 µM; at hGAT1 (monophasic fit, N=1), 476 µM. In addition, the Fit entry on hGAT1 (preferred model per experiment) was “Ambiguous; also recorded: Monophasic”. For the same compound, at hGAT3, the preferred fit entry is given as “biphasic fit”. In addition, the “inhibition profile and activity at hGAT3 L314Q” value against hGAT3 L314Q is recorded as “activity in hGAT3 L314Q similar to hBGT1”. For the same compound, the results for the Ki at 5-HT2C (full curve) and on 5-HT2B (full curve) were 0.67 µM and 0.42 µM, respectively.

By inhibition is commonly meant the change of the read-out against control, counted positive when it falls. The term % inhibition denotes how much of the control response was suppressed. A low value points to little suppression. The term IC50 denotes the concentration needed to halve the response being measured. Low values mean inhibition by little substance, high ones a need for much substance. A word on the Ki: it is the equilibrium dissociation constant of an inhibitor or competing ligand from its target.
